Holding throughout (test): NCI tumour cell line growth inhibition, 48 h
The subject of experiment [1] is CCRF-CEM.
Experiment [2] relates to SNB-75.
For experiment [3], the system named is SK-OV-3.
For experiment [4], the system named is SK-MEL-2.
Experiment [5] concerns SK-MEL-5.
The test system of experiment [6] is OVCAR-4.
Experiment [7] concerns SN12C.
Experiment [8] deals with UO-31.
Experiment [9] deals with A498.
In experiment [10] the test system is MCF7.
Experiment [11] relates to CAKI-1.
Experiment [12] deals with M14.
In experiment [13] the test system is T47D.
For experiment [14], the system named is NCI/ADR-RES.
The subject of experiment [15] is MDA-MB-435.
The subject of experiment [16] is U-251.
For experiment [17], the system named is UACC-62.
Experiment [18] relates to HCT-116.
Experiment [19] has as its system SF-295.
Experiment [20] deals with NCI-H226.

Structures are written as SMILES.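 1) Cells in 96-well plates. 2) Compound, 48 h, 5 concentrations. 3) Linear interpolation between surrounding doses. 4) Unreached endpoint = highest concentration. GI50 marks 50% less growth.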 Activity calls are given as the source filed them. Cut-off read from the data, not from the text of the source: active = GI50 up to about 1.1 µM and inactive = higher. Some results are limits rather than exact numbers.

`O=[N+]([O-])c1ccc(CSCc2ccc(Cl)cc2)cc1`: the GI50 in experiment [1] was 14.5 µM (inactive); in experiment [2] it was > 100 µM (inactive); in experiment [3] it was > 100 µM (inactive); in [4], > 100 µM (inactive); in experiment [5], > 100 µM (inactive); in experiment [6], > 100 µM (inactive). The GI50 in [7], in [8], in experiment [9], in experiment [10], in [11] and in experiment [12] was > 100 µM (inactive) in each case. Further, the GI50 was 74.3 µM (inactive) in experiment [13]; > 100 µM (inactive) in [14]; > 100 µM (inactive) in experiment [15]; > 100 µM (inactive) in experiment [16]; > 100 µM (inactive) in [17]; 92.3 µM (inactive) in [18]. Further, the GI50 in experiment [19] and in [20] was > 100 µM (inactive) each time.

On to `O=[As](O)(O)c1ccc(/N=N/c2ccc(O)cc2)cc1`, for which the GI50 in [1], in experiment [2], in experiment [3], in experiment [4], in [5] and in experiment [6] was > 100 µM (inactive) throughout. The GI50 in [7], in [8], in experiment [9], in experiment [10], in experiment [11] and in [12] was > 100 µM (inactive) in each case. Besides, the GI50 in [13], in experiment [14], in [15], in [16], in experiment [17] and in experiment [18] was > 100 µM (inactive) in each case. In addition, the GI50 in [19] and in experiment [20] was > 100 µM (inactive) each time.

For `CCOC(=O)C#Cc1ccc(C#CC(=O)OCC)cc1`, the GI50 was 1.66 µM (inactive) in [1]; 0.0381 µM (active) in experiment [2]; 9.84 µM (inactive) in experiment [3]; 0.421 µM (active) in experiment [4]; 2.89 µM (inactive) in experiment [5]; 2.83 µM (inactive) in experiment [6]. In addition, the GI50 was 3.21 µM (inactive) in experiment [7]; 3.43 µM (inactive) in [8]; 14.2 µM (inactive) in experiment [9]; 1.54 µM (inactive) in [10]; 2.35 µM (inactive) in experiment [11]; 2.12 µM (inactive) in experiment [12]. Moreover, the GI50 is > 21.2 µM (inactive) in experiment [13]; 6.43 µM (inactive) in [14]; 0.818 µM (active) in experiment [15]; 2.51 µM (inactive) in experiment [16]; 3.37 µM (inactive) in [17]; 1.7 µM (inactive) in experiment [18]. Also, the GI50 was 13.5 µM (inactive) in experiment [19] and 3.3 µM (inactive) in experiment [20].

For the compound `CC1=C(O)C(=O)C[C@]2(C)[C@H]3CC=C4[C@@H]5CC(C)(C)CC[C@@H]5C(=O)[C@H](O)[C@@]4(C)[C@]3(C)CC[C@@H]12`, the GI50 in experiment [1] is > 50 µM (inactive); in experiment [2], 17.3 µM (inactive); in experiment [3] it was > 50 µM (inactive); in [4] it was 37.4 µM (inactive); in experiment [5], 34.8 µM (inactive); in experiment [6], 40.4 µM (inactive). The GI50 in experiment [7], in [8], in experiment [9], in experiment [10], in [11] and in experiment [12] was > 50 µM (inactive) throughout. Further, the GI50 was > 50 µM (inactive) in [13]; > 50 µM (inactive) in experiment [14]; > 50 µM (inactive) in experiment [15]; 27.5 µM (inactive) in [16]; > 50 µM (inactive) in [17]; > 50 µM (inactive) in [18]. Moreover, the GI50 in experiment [19] is 37.8 µM (inactive); in [20], > 50 µM (inactive).
